Measured values as given in patent publication US12436156B2, “Methods of determining pH and calcium or chloride concentration in samples” (The University of Chicago, priority 2018, dated 2025).
Where a name gives a salt, the structure may show the parent alone.

B1: rhASM: Recombinant human acid sphingomyelinase, enzyme replacement therapy for NP-A/B (protein, UniProt P17405 47-631, looked up)
Sphingomyelin …: LALSDSRVLWAPAEAHPLSPQGHPARLHRIVPRLRDVFGWGNLTCPICKGLFTAINLGLKKEPNVARVGSVAIKLCNLLKIAPPAVCQSIVHLFEDDMVEVWRRSVLSPSEACGLLLGSTCGHWDIFSSWNISLPTVPKPPPKPPSPPAPGAPVSRILFLTDLHWDHDYLEGTDPDCADPLCCRRGSGLPPASRPGAGYWGEYSKCDLPLRTLESLLSGLGPAGPFDMVYWTGDIPAHDVWHQTRQDQLRALTTVTALVRKFLGPVPVYPAVGNHESTPVNSFPPPFIEGNHSSRWLYEAMAKAWEPWLPAEALRTLRIGGFYALSPYPGLRLISLNMNFCSRENFWLLINSTDPAGQLQWLVGELQAAEDRGDKVHIIGHIPPGHCLKSWSWNYYRIVARYENTLAAQFFGHTHVDEFEVFYDEETLSRPLAVAFLAPSATTYIGLNPGYRVYQIDGNYSGSSHVVLDHETYILNLTQANIPGAIPHWQLLYRARETYGLPNTLPTAWHNLVYRMRGDMQLFQTFWFLYHKGHPPSEPCGTPCRLATLCAQLSARADSPALCRHLMPDGSLPEAQSLWPRPLFC

Experiments:
Assay type in all cases: cell-based, human
[1] = tested on: lysosomes in HDF cells; assay: 2-IM upon addition of lysosomal proton pump and ion channel blocker; details: ChloropHoreLy labelled, 500 nM bafilomycin A1 or 300 μM NPPB, 45 min
Description: Lysosomal pH and chloride measurements. Fibroblast cells are pulsed with 2 μM of I^mLy, ChloropHore or ChloropHoreLy for 1 h, chased for 9 h (30 min pulse and 1 h chase for J774. A1, BHK-21 and T47D cells) and then washed with 1×PBS and subjected for imaging.
2-IM upon addition of lysosomal proton pump and ion channel blocker. Upon lysosome labeling, final concentration of 500 nM bafilomycinA1 and 300 μM of 5-nitro-2-(3-phenylpropyl-amino) benzoic acid (NPPB) were added to cells and incubated for 45 min. Cells was then washed with PBS and imaged in Hank's Balanced Salt Solution (HBSS) containing the respective blocker compounds.
(§1) Image analysis for pH and sensors. Images were analyzed with ImageJ/Fiji 2.0.0-rc-54/1.51h. pH and chloride measurements are performed as described previously. To generate a density plot to represent lysosomal populations, the individual D/A (Y-axis) versus the corresponding R/G (X-axis) values was first plotted for each lysosome that was obtained for a given fibroblast sample comprising ˜60 cells and ˜600 lysosomes. Density plots were generated using 2D Kernel Density plot on Origin 2018 SR1 b9.5.1.195 (OriginLab, USA). […] To normalize between experiments done on different days, the lysosomal pH and Cl− of a sample of normal HDF cells was always measured as well, the density plot of which served as the reference. […]

[2] = tested on: lysosomes in HDF cells; assay: 2-IM in pharmacologically induced cell culture models for NP-A/B and NP-C; details: HDF cells from a healthy individual; 65 μM AH or 20 μM U18666A, 24 h
Description: Niemann Pick type A/B and C models were prepared according to the previous reported method. Cells were incubated with 65 μM of the acid sphingomyelinase (ASM) inhibitor amitriptyline (AH) and 20 μM of the NPC1 inhibitor U18666A for 24 h to create a NP-A/B and NP-C models respectively. The cells are pulsed with 2 μM of ChloropHoreLY and either 65 μM AH or 20 μM U18666A for 1 h, chased with either 65 μM AH or 20 μM U18666A for 9 h and then washed with 1×PBS and imaged.
Image analysis for pH and sensors. Images were analyzed with ImageJ/Fiji 2.0.0-rc-54/1.51h. pH and chloride measurements are performed as described previously. To generate a density plot to represent lysosomal populations, the individual D/A (Y-axis) versus the corresponding R/G (X-axis) values was first plotted for each lysosome that was obtained for a given fibroblast sample comprising ˜60 cells and ˜600 lysosomes. Density plots were generated using 2D Kernel Density plot on Origin 2018 SR1 b9.5.1.195 (OriginLab, USA). This converted the individual scatter points into a population matrix as a probability density function. The density plot is then pseudo colored to represent high density in red (values close to 1) and low density in blue (values closer to 0). Those points with <10% probability on the plot were discarded. For normalization between days, the point of highest density (value =1) of normal HDF cells was designated as the center of the plot with x,y coordinates (1,1). To normalize between experiments done on different days, the lysosomal pH and Cl− of a sample of normal HDF cells was always measured as well, the density plot of which served as the reference. All density plots acquired on the same day with the same settings were thus normalized to the HDF cell density plots to enable comparison of data across different days.

[3] = tested on: lysosomes of NP-C patient fibroblasts; assay: Lysosomal population rescue using β-CD in NP-C patient fibroblasts (2-IM); details: NP-C patient samples mutated in NPC1 or NPC2, 50 μM, 24 h
Description: (§2) Lysosomal population rescue using ASM and β-CD. Recombinant human acid sphingomyelinase was incubated with NP-A/B patient cells according to the previous method. Primary human fibroblasts derived from NP-A/B patients were maintained in DMEM medium with 1% FBS for 24 h. The medium was then changed to DMEM with 1% FBS containing 0.2% BSA and 5 μg of rhASM. After 24 h, the cells are pulsed with 2 μM of ChloropHoreLy for 1 h, chased for 9 h and then washed with 1×PBS and imaged. Primary human fibroblasts from NP-C patient were incubated with 50 μM of o-Hydroxypropyl-β-cyclodextrin (β-CD) for 24 h. The cells are pulsed with 2 μM of ChloropHoreLy and 50 μM of β-CD for 1 h, chased with 50 μM of β-CD for 9 h and then washed with 1×PBS and imaged.
as §1, with “lysosomes.” for “lysosomes. Density plots were generated using 2D Kernel Density plot on Origin 2018 SR1 b9.5.1.195 (OriginLab, USA).”

[4] = tested on: lysosomes of NP-A and NP-B patient fibroblasts; assay: Lysosomal population rescue using ASM in NP-A/B patient fibroblasts (2-IM); details: 5 μg rhASM, 24 h
Description: as §2
as §1, with “lysosomes.” for “lysosomes. Density plots were generated using 2D Kernel Density plot on Origin 2018 SR1 b9.5.1.195 (OriginLab, USA).”

| Molecule | high Cl-, high acidity lysosome population (2-IM profile) [1] | high chloride, high acidity lysosome population (2-IM profile) [2] | lysosome population in 2-IM profile [2] | further results |
| --- | --- | --- | --- | --- |
| O=C(O)c1cc([N+](=O)[O-])ccc1NCCCc1ccccc1 [5-nitro-2-(3-phenylpropylamino) benzoic acid] | lost |  |  |  |
| CCN(CC)CCO[C@H]1CC[C@@]2(C)C(=CC[C@@H]3[C@@H]2CC[C@]2(C)C(=O)CC[C@@H]32)C1 [U18666A] |  | depletion | monodisperse |  |
| CN(C)CCC=C1c2ccccc2CCc2ccccc21 [amitriptyline hydrochloride] |  | depletion | monodisperse |  |
| CO/C1=C\C(C)=C\[C@@H](C)[C@@H](O)[C@@H](C)C/C(C)=C/C=C/[C@H](OC)[C@@H]([C@@H](C)[C@@H](O)[C@H](C)[C@@]2(O)C[C@@H](O)[C@H](C)[C@@H](C(C)C)O2)OC1=O [bafilomycin Al] | lost |  |  |  |
| o-2-hydroxypropyl-β-cyclodextrin [RCD] |  |  |  | lysosomes with higher lumenal Cl- and H+ content (2-IM profile) [3]: appearance; monodispersity of the 2-IM profile [3]: loss of monodispersity |
| B1 |  |  |  | high chloride, high acidity lysosome population (2-IM profile) [4]: reemergence |
